Data: patent publication US20220152100A1, “METHODS FOR CONTROLLED ACTIVATION OR ELIMINATION OF THERAPEUTIC CELLS” (Bellicum Pharmaceuticals, Inc., priority 2014, published 2022)

How the values were obtained:
differentiated MSCs = experiment: CID-induced apoptosis of differentiated MSC progeny (TUNEL, cell density); details: adipocytic differentiated iCasp9-positive cells, 50 nM, 24 hours; from 584
iCasp9-positive MSCs = experiment: In vivo killing of iCasp9-transduced MSCs in SCID mice (luminescence, qPCR)
Protocol: All mouse experiments were performed in accordance with the Baylor College of Medicine animal husbandry guidelines. To assess the persistence of modified MSCs in vivo, a SCID mouse model was used in conjunction with an in vivo imaging system. MSCs were transduced with retroviruses coding for the enhanced green fluorescent protein-firefly luciferase (eGFP-FFLuc) gene alone or together with the iCasp9-ΔCD19 gene. Cells were sorted for eGFP positivity by fluorescence activated cell sorting using a MoFlo flow cytometer (Beckman Coulter, Fullerton, Calif.). Doubly transduced cells were also stained with PE-conjugated anti-CD19 and sorted for PE-positivity. SCID mice (8-10 weeks old) were injected subcutaneously with 5×10^5 MSCs with and without iCasp9-ΔCD19 in opposite flanks. […] For in vivo imaging of MSCs expressing eGFP-FFLuc, mice were injected intraperitoneally with D-luciferin (150 mg/kg) and analyzed using the Xenogen-IVIS Imaging System. Total luminescence (a measurement proportional to the total labeled MSCs deposited) at each time point was calculated by automatically defining regions-of-interest (ROIs) over the MSC implantation sites. These ROIs included all areas with luminescence signals at least 5% above background. Total photon counts were integrated for each ROI and an average value calculated. […]

human CD3+/GFP+ T cells = experiment: SCID mouse-human xenograft: elimination of iCasp9M-transduced CTLs in tumors; format: in vivo, NOD/SCID mice; details: single dose 50 μg intraperitoneally, versus carrier, 3 days after
Protocol: Non-obese diabetic severe combined immunodeficient (NOD/SCID) mice, 6 to 8 weeks of age, were irradiated (250 rad) and injected subcutaneously in the right flank with 10×10^6 to 15×10^6 LCLs resuspended in Matrigel (BD Bioscience). Two weeks later mice bearing tumors that were approximately 0.5 cm in diameter were injected into the tail vein with a 1:1 mixture of nontransduced and iCasp9.I.GFPhigh-transduced EBV CTLs (total 15×10^6). At 4 to 6 hours prior and 3 days after CTL infusion, mice were injected intraperitoneally with recombinant hIL-2 (2000 U; Proleukin; Chiron). […] By FACS analysis, the number of GFP+ cells within the gated CD3^+ population was evaluated. […]
The function of iCasp9M also was evaluated in transduced EBV-CTLs in vivo. […] Three days after CID/carrier administration, tumors were analyzed for human CD3^+/GFP^+ cells. […]
The function of iCasp9M in vivo, was assayed. […] On day 3 after CTL administration, mice received either CID (50 μg AP20187; (black diamonds, n=6) or carrier only (black squares, n=5) and on day 6 the presence of human CD3+/GFP+ T cells in the tumors was analyzed. Human CD3+ T cells isolated from the tumors of a control group of mice that received only nontransduced CTLs (15×10^6 CTLs; n=4) were used as a negative control for the analysis of CD3+/GFP+ T cells within the tumors.

Jurkat = experiment: CID-induced apoptosis (annexin V) in transduced Jurkat cells; format: cell-based, human; details: iFas-transduced Jurkat, 10 nM, 8 hours

CC[C@H](C(=O)N1CCCC[C@H]1C(=O)O[C@H](CCc1ccc(OC)c(OC)c1)c1cccc(OCC(=O)NCC(CNC(=O)COc2cccc([C@@H](CCc3ccc(OC)c(OC)c3)OC(=O)[C@@H]3CCCCN3C(=O)[C@@H](CC)c3cc(OC)c(OC)c(OC)c3)c2)CN(C)C)c1)c1cc(OC)c(OC)c(OC)c1 [AP20187]
cell density (differentiated MSCs): < 14 cells/mm2
surviving iCasp9-positive cells, of the original population (iCasp9-positive MSCs; after one week): 0.7%
killing of iCasp9-positive cells (iCasp9-positive MSCs; two injections of 50 μg 24 hours apart, qPCR): > 99%
reduction in the number of human CD3+/GFP+ T cells in tumors (human CD3+/GFP+ T cells): > 99%
apoptotic cells (annexin-V) (Jurkat): 56.4%+/−15.6
